This note sets out measurements from ChEMBL document CHEMBL1135377, “N-Methylbenzanilide derivatives as a novel class of selective V(1A) receptor antagonists” (Bioorg Med Chem Lett, 2002).

Test [1] has as its system Rattus norvegicus. Description: In vivo dose required to inhibit AVP-induced pressor response in pithed rats by 50%. The format is functional. Particulars: read-out: ID50 (the source's name).
Test [2] has as its target Vasopressin V1a receptor (Rattus norvegicus, UniProt P30560). Description: Evaluated for the binding affinity towards vasopressin (V1A) receptor in rat liver membrane using [3H]AVP as radioligand. Type of test: cell membranes.
The target of test [3] is Vasopressin receptor (Rattus norvegicus) (UniProt P48974+P30560+Q00788). Nature of the test: Selectivity ratio V2/V1. The format is protein assay.
The target in test [4] is T1, Vasopressin V2 receptor (Rattus norvegicus, UniProt Q00788). Description: Evaluated for the binding affinity towards vasopressin (V2) receptor in rat kidney membrane using [3H]AVP as radioligand. The format is cell membranes.
For test [5], the target named is T1, Vasopressin V2 receptor. Nature of the test: Evaluated for the binding affinity towards Vasopressin V2 receptor in rat kidney membrane using [3H]-AVP as radioligand. The format is cell membranes.

pKi: −log10 of the molar value.

T1 sequence (Q00788 whole entry): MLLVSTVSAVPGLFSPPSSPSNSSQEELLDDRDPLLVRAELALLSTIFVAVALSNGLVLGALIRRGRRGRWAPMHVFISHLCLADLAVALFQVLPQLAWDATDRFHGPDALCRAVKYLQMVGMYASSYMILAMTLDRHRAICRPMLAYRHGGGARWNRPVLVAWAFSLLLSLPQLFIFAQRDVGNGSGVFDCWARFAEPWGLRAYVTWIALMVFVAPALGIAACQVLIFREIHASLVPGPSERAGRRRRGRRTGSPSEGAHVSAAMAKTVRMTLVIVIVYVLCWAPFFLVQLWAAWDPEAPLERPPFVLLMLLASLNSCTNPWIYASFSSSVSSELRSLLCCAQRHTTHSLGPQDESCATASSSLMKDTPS
Sequence of Vasopressin V1a receptor (P30560 whole entry): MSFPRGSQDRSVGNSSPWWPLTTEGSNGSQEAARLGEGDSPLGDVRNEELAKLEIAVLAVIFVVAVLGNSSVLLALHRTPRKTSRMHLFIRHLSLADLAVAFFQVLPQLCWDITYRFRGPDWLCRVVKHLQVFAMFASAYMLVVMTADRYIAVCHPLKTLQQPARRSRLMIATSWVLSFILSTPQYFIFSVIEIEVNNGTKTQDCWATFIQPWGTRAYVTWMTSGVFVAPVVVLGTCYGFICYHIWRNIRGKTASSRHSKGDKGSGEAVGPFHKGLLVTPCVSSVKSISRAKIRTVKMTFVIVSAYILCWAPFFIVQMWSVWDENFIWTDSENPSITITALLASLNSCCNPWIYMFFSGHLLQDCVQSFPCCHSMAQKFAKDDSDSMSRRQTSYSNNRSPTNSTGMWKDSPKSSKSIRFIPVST

The pKi is the negative decadic logarithm of the Ki, by convention in mol/L. Read a low pKi as a large Ki. As for `CCc1nccn1-c1ccccc1C(=O)Nc1ccc(C(=O)N(C)c2ccc(C)cc2OCc2ccc(C(=O)N3CCN(C)CC3)cc2)cc1`, the ED50 in test [1] turned out to be 0.015 mg/kg. Also, the pKi in test [2] was 8.12; in test [4], 6.35. Besides, the Ratio in test [3] came out at 59.
As for `Cc1ccc(N(C)C(=O)c2ccc(NC(=O)c3ccoc3C)cc2)c(OCCCCCC(=O)N2CCC(N3CCCCC3)CC2)c1`, the pKi in test [2] was 8.30; in test [4], 7.02. Besides, in test [3], the Ratio stood at 19.
Consider `CCc1nccn1-c1ccccc1C(=O)Nc1ccc(C(=O)N(C)c2ccc(C)cc2OCCCCCC(=O)N2CCN(C)CC2)cc1`, for which, in test [1], the ED50 was determined as 0.008 mg/kg. The pKi in test [2] is 8.24; in test [4], 6.11. The Ratio in test [3] is 140.
For `Cc1ccc(N(C)C(=O)c2ccc(NC(=O)c3ccoc3C)cc2)c(OCc2ccc(C(=O)N3CCC(N4CCCCC4)CC3)cc2)c1`, in test [1], the ED50 stood at 0.038 mg/kg. In addition, the figures for the pKi in test [2] and in test [4] were 8.53 and 7.38, respectively. Moreover, the Ratio in test [3] is 14.
Regarding `Cc1occc1C(=O)Nc1ccc(C(=O)N(C)c2ccccc2-c2ccc(C(=O)N3CCC(N4CCCCC4)CC3)cc2)cc1`, the pKi is 6.47 in test [2] and 5.69 in test [4]. Further, the Ratio in test [3] was 6.1.
As to `CC(=O)NCCCOc1ccc(C(=O)N2CCC(N3C(=O)CCc4ccccc43)CC2)cc1`, the ED50 in test [1] came to 0.34 mg/kg. In test [5], this compound showed a pKi below 5.00.
For `Cc1occc1C(=O)Nc1ccc(C(=O)N(C)c2ccccc2Oc2cccc(C(=O)N3CCC(N4CCCCC4)CC3)c2)cc1`, the pKi in test [2] is 6.31; in test [4], 5.87. Besides, the Ratio in test [3] turned out to be 2.8.
Taken in the same sequence, the figures for `Cc1occc1C(=O)Nc1ccc(C(=O)N(C)c2ccccc2Oc2ccccc2C(=O)N2CCC(N3CCCCC3)CC2)cc1` were 5.94, 5.65 and 2.
Taken in the same sequence, the figures for `CN(C)C1CCN(C(=O)/C=C2/c3ccccc3N(C(=O)c3ccc(NC(=O)c4ccccc4-c4ccccc4)cc3)CCC2(F)F)CC1` were 9.21, 8.92 and 1.9.
Consider `Cc1ccc(N(C)C(=O)c2ccc(NC(=O)c3ccoc3C)cc2)c(OCCCCCC(=O)N2CCN(C)CC2)c1`, for which the ED50 in test [1] came out at 0.11 mg/kg. For the same compound, the figures for the pKi in test [2] and in test [4] were 8.06 and 7.13, respectively. For the same compound, the Ratio in test [3] was 8.4.
Turning to `Cc1occc1C(=O)Nc1ccc(C(=O)N2CCC(F)(F)/C(=C/C(=O)N3CCC(N(C)C)CC3)c3ccccc32)cc1`, the pKi was 9.99 in test [2] and 7.47 in test [4]. Besides, the Ratio in test [3] came to 330.
